Test results published in PubChem BioAssay (NCI).
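Cells were grown in 96-well plates and exposed to each compound for 48 hours at five concentrations; endpoints were interpolated linearly between bracketing concentrations, or set to the highest concentration if not reached. The concentration for full growth arrest is given as TGI.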

Assays:
Experiment in all cases: NCI anticancer screen, dose series, 48 h
MDA-MB-231 breast = test system: MDA-MB-231 breast
NCI-H522 lung = test system: NCI-H522 lung
SR leukemia = test system: SR leukemia
NCI-H460 lung = test system: NCI-H460 lung
RXF 393 renal = test system: RXF 393 renal
BT-549 breast = test system: BT-549 breast
UO-31 renal = test system: UO-31 renal
OVCAR-8 ovarian = test system: OVCAR-8 ovarian
SF-295 CNS = test system: SF-295 CNS
MOLT-4 leukemia = test system: MOLT-4 leukemia
LOX IMVI melanoma = test system: LOX IMVI melanoma
OVCAR-3 ovarian = test system: OVCAR-3 ovarian
HT29 colon = test system: HT29 colon
DU-145 prostate = test system: DU-145 prostate
MALME-3M melanoma = test system: MALME-3M melanoma
UACC-62 melanoma = test system: UACC-62 melanoma
SK-MEL-5 melanoma = test system: SK-MEL-5 melanoma
M14 melanoma = test system: M14 melanoma
786-0 renal = test system: 786-0 renal
HCT-116 colon = test system: HCT-116 colon
TK-10 renal = test system: TK-10 renal
HOP-62 NSCLC = test system: HOP-62 NSCLC
NCI-H226 lung = test system: NCI-H226 lung
RPMI-8226 leukemia = test system: RPMI-8226 leukemia
EKVX NSCLC = test system: EKVX NSCLC
OVCAR-5 ovarian = test system: OVCAR-5 ovarian
MDA-N = test system: MDA-N
T-47D breast = test system: T-47D breast
HCC-2998 colon = test system: HCC-2998 colon
SK-OV-3 ovarian = test system: SK-OV-3 ovarian
ACHN renal = test system: ACHN renal
NCI/ADR-RES ovarian = test system: NCI/ADR-RES ovarian
SK-MEL-2 melanoma = test system: SK-MEL-2 melanoma
A498 renal = test system: A498 renal
A549 NSCLC = test system: A549 NSCLC
UACC-257 melanoma = test system: UACC-257 melanoma
HCT-15 colon = test system: HCT-15 colon
SK-MEL-28 melanoma = test system: SK-MEL-28 melanoma
SN12C renal = test system: SN12C renal
MCF7 breast = test system: MCF7 breast
SNB-75 CNS = test system: SNB-75 CNS
PC-3 prostate = test system: PC-3 prostate
OVCAR-4 ovarian = test system: OVCAR-4 ovarian
SF-268 CNS = test system: SF-268 CNS
HS 578T breast = test system: HS 578T breast
SNB-19 CNS = test system: SNB-19 CNS
COLO 205 colon = test system: COLO 205 colon
CAKI-1 renal = test system: CAKI-1 renal
MDA-MB-435 = test system: MDA-MB-435
CCRF-CEM leukemia = test system: CCRF-CEM leukemia
KM12 colon = test system: KM12 colon
U251 CNS = test system: U251 CNS
SW-620 colon = test system: SW-620 colon
IGROV1 ovarian = test system: IGROV1 ovarian

## O=C1c2scc(-c3ccccc3)c2-n2cccc21
MDA-MB-231 breast
  TGI: 31.4 µM
NCI-H522 lung
  TGI: 25.2 µM
SR leukemia
  TGI: 47.2 µM
NCI-H460 lung
  TGI: > 100 µM
RXF 393 renal
  TGI: 29.9 µM
BT-549 breast
  TGI: > 100 µM
UO-31 renal
  TGI: > 100 µM
OVCAR-8 ovarian
  TGI: 27.4 µM
SF-295 CNS
  TGI: 36 µM
MOLT-4 leukemia
  TGI: 37.9 µM
LOX IMVI melanoma
  TGI: 27.9 µM
OVCAR-3 ovarian
  TGI: 38.1 µM
HT29 colon
  TGI: 25.3 µM
DU-145 prostate
  TGI: > 100 µM
MALME-3M melanoma
  TGI: 30.7 µM
UACC-62 melanoma
  TGI: 55.6 µM
SK-MEL-5 melanoma
  TGI: 30 µM
M14 melanoma
  TGI: 33.3 µM
786-0 renal
  TGI: 28 µM
HCT-116 colon
  TGI: 26.2 µM
TK-10 renal
  TGI: > 100 µM
HOP-62 NSCLC
  TGI: 38.1 µM
NCI-H226 lung
  TGI: 25 µM
RPMI-8226 leukemia
  TGI: 34.1 µM
EKVX NSCLC
  TGI: 25.4 µM
OVCAR-5 ovarian
  TGI: 48 µM
MDA-N
  TGI: 50 µM
T-47D breast
  TGI: 80.9 µM
HCC-2998 colon
  TGI: 59.5 µM
SK-OV-3 ovarian
  TGI: 44.7 µM
ACHN renal
  TGI: > 100 µM
NCI/ADR-RES ovarian
  TGI: 35.4 µM
SK-MEL-2 melanoma
  TGI: 30.7 µM
A498 renal
  TGI: 5.02 µM
A549 NSCLC
  TGI: 42.6 µM
UACC-257 melanoma
  TGI: > 100 µM
HCT-15 colon
  TGI: > 100 µM
SK-MEL-28 melanoma
  TGI: 28.8 µM
SN12C renal
  TGI: 74.8 µM
MCF7 breast
  TGI: 52.9 µM
SNB-75 CNS
  TGI: 27.2 µM
PC-3 prostate
  TGI: 41.2 µM
OVCAR-4 ovarian
  TGI: > 100 µM
SF-268 CNS
  TGI: 30.3 µM
HS 578T breast
  TGI: 24 µM
SNB-19 CNS
  TGI: 42 µM
COLO 205 colon
  TGI: 31.7 µM
CAKI-1 renal
  TGI: 31.9 µM
MDA-MB-435
  TGI: 29 µM
CCRF-CEM leukemia
  TGI: 60.8 µM
KM12 colon
  TGI: 27.3 µM
U251 CNS
  TGI: 27.7 µM
SW-620 colon
  TGI: 34.1 µM
IGROV1 ovarian
  TGI: 17.7 µM
